Test results reported in patent US9006243B2, “HIV inhibiting 6-substituted pyrimidines” (Janssen R&D Ireland, priority 2006, dated 2015).
Read-outs that look alike come from different tables or passages of the source.

Assays:
HIV strain Y181C = assay: microbe, parasite or virus in culture; assay type: cell-based, HIV-1; settings: for Y181C pEC50 (−log EC50): HIV strain Y181C, MT4 LTR-EGFP cells, three days after infection; for EC50: Human immunodeficiency virus 1, 72 h, read-out: Y181C pEC50 (−log EC50) (converted)
Description: (§1) Image analysis allows very sensitive detection of viral infection.

HIV strain L100I + K103N = assay: microbe, parasite or virus in culture; assay type: cell-based, HIV-1; settings: for L100I + K103N pEC50 (−log EC50): HIV strain L100I + K103N, MT4 LTR-EGFP cells, three days after infection
Description: as §1

HIV strain K103N + Y181C = assay: microbe, parasite or virus in culture; assay type: cell-based, HIV-1; settings: for K103N + Y181C pEC50 (−log EC50): HIV strain K103N + Y181C, MT4 LTR-EGFP cells, three days after infection; for EC50: Human immunodeficiency virus 1, 72 h, read-out: K103N + Y181C pEC50 (−log EC50) (converted)
Description: as §1

[1] = system: HIV strain IIIB (wild type); assay: microbe, parasite or virus in culture; settings: for EC50: Human immunodeficiency virus 1, IIIB, 72 h, read-out: IIIB pEC50 (−log EC50) (converted)
Experimental: Compounds of the invention were tested for their potency against wild type virus and clinically isolated HIV strains harboring one or more mutations associated with resistance to reverse transcriptase inhibitors. Antiviral activity was evaluated using a cellular assay performed according to the following procedure.
The human T-cell line MT4 was engineered with Green Fluorescent Protein (GFP) and a HIV-specific promoter, HIV-1 long terminal repeat (LTR). This cell line, designated MT4 LTR-EGFP, can be used for the in vitro evaluation of anti-HIV activity of investigational compounds. In HIV-1 infected cells, the Tat protein is produced, which upregulates the LTR promotor and eventually leads to stimulation of the GFP reporter production, allowing to measure ongoing HIV-infection fluorometrically.
Analogously, MT4 cells were engineered with GFP and the constitutional cytomegalovirus (CMV) promotor. […] Cytotoxic investigational compounds reduce GFP levels of mock-infected MT4 CMV-EGFP cells.
The ratio of CC50 to EC50 is defined as the selectivity index (SI) and is an indication of the selectivity of the anti-HIV activity of the inhibitor. The ultimate monitoring of HIV-1 infection and cytotoxicity was done using a scanning microscope. Image analysis allows very sensitive detection of viral infection. Measurements were done before cell necrosis, which usually takes place about five days after infection, in particular measurements were performed three days after infection.
The columns IIIB, L100I, etc. in the table list the pEC50 (−log EC50) values against various strains IIIB, L100I, etc.; pSI lists the −log SI values.
Strain IIIB is wild type HIV strain.

[2] = molecular target: HIV strain MDR (L100I, K103N, Y181C, E138G, V179I, L2214F, V278V/I and A327A/V in HIV reverse transcriptase); assay: microbe, parasite or virus in culture; assay type: cell-based, HIV-1; settings: for MDR pEC50 (−log EC50): MDR HIV strain (multiple RT mutations), MT4 LTR-EGFP cells, three days after infection; for EC50: Human immunodeficiency virus 1, 72 h, read-out: MDR pEC50 (−log EC50) (converted)
Description: as §1
“MDR” refers to a strain that contains mutations L100I, K103N, Y181C, E138G, V179I, L2214F, V278V/I and A327A/V in HIV reverse transcriptase.

[3] = wild type HIV strain IIIB, MT4 LTR-EGFP cells, GFP fluorescence, three days after infection

Row | Structure (SMILES) | Y181C pEC50 (−log EC50) (HIV strain Y181C) | L100I + K103N pEC50 (−log EC50) (HIV strain L100I + K103N) | K103N + Y181C pEC50 (−log EC50) (HIV strain K103N + Y181C) | IIIB pEC50 (−log EC50) [1, 3] | MDR pEC50 (−log EC50) [2] | EC50 (HIV strain Y181C) | EC50 (HIV strain K103N + Y181C) | EC50 [1] | EC50 [2] | melting point | EC50 (HIV strain L100I + K103N; Human immunodeficiency virus 1, 72 h, read-out: L100I + K103N pEC50 (−log EC50) (converted)) | IIIB pEC50 (−log EC50) [1]
1 | CCOP(=O)(OCC)OCc1cc(Nc2c(C)cc(/C=C/C#N)cc2C)nc(Nc2ccc(C#N)cc2)n1 [Compound 32] | 7.60 | 7.20 | 7.50 | 8.50 | 6.40 |  |  |  |  |  |  | 
2 | Cc1cc(C=CC#N)cc(C)c1Nc1cc(CNCc2ccco2)nc(Nc2ccc(C#N)cc2)n1 (mixture of isomers) [Compound 26] | 7.62 |  | 8.07 | 8.43 | 5.57 |  |  |  |  |  |  | 
3 | C=CCOCc1cc(Nc2c(C)cc(/C=C/C#N)cc2C)nc(Nc2ccc(C#N)cc2)n1 [Compound 2] | 7.74 | 7.12 | 7.15 | 8.44 | 4.95 |  |  |  |  |  |  | 
4 | Cc1cc(C=CC#N)cc(C)c1Nc1cc(CNCc2ccncc2)nc(Nc2ccc(C#N)cc2)n1 (mixture of isomers) [Compound 30] | 7.69 | 7.56 | 7.89 | 8.55 | 5.80 |  |  |  |  |  |  | 
5 | COCCNC(=O)c1cc(Nc2c(C)cc(/C=C/C#N)cc2C)nc(Nc2ccc(C#N)cc2)n1 [Compound 4] |  |  |  |  |  | 13.8 nM | 10.2 nM | 3.09 nM | 2820 nM | 130 °C |  | 
6 | COCCNCc1cc(Nc2c(C)cc(C=CC#N)cc2C)nc(Nc2ccc(C#N)cc2)n1 (mixture of isomers) [Compound 15] | 7.89 | 7.42 | 7.86 | 8.54 | 5.55 |  |  |  |  |  |  | 
7 | Cc1cc(C=CC#N)cc(C)c1Nc1cc(CNCC2CC2)nc(Nc2ccc(C#N)cc2)n1 (mixture of isomers) [Compound 14] | 7.85 | 7.00 | 7.76 | 8.52 | 5.67 |  |  |  |  |  |  | 
8 | CON(C)Cc1cc(Nc2c(C)cc(C=CC#N)cc2C)nc(Nc2ccc(C#N)cc2)n1 (mixture of isomers) [Compound 18] | 8.06 | 7.48 | 7.79 | 9.05 | 6.33 |  |  |  |  |  |  | 
9 | Cc1cc(C=CC#N)cc(C)c1Nc1cc(CNCCc2ccccn2)nc(Nc2ccc(C#N)cc2)n1 (mixture of isomers) [Compound 20] | 6.99 | 6.33 | 6.96 | 8.46 | 5.30 |  |  |  |  |  |  | 
10 | Cc1cc(/C=C/C#N)cc(C)c1Nc1cc(CN2CCN(C)CC2)nc(Nc2ccc(C#N)cc2)n1 [Compound 13] | 7.79 | 7.20 | 7.68 | 8.54 | 5.59 |  |  |  |  |  |  | 
11 | Cc1cc(/C=C/C#N)cc(C)c1Nc1cc(C(=O)c2nccs2)nc(Nc2ccc(C#N)cc2)n1 [Compound 10] |  |  |  |  |  | 3.47 nM | 10.7 nM | 2.82 nM | 562 nM |  | 4.79 nM | 
12 | Cc1cc(C=CC#N)cc(C)c1Nc1cc(CNCC2COC(C)(C)O2)nc(Nc2ccc(C#N)cc2)n1 (mixture of isomers) [Compound 16] | 7.60 | 7.06 | 7.61 |  | 5.64 |  |  |  |  |  |  | 8.54
13 | Cc1cc(C=CC#N)cc(C)c1Nc1cc(CNCc2ccccn2)nc(Nc2ccc(C#N)cc2)n1 (mixture of isomers) [Compound 25] | 7.03 |  | 7.30 | 7.63 | 5.75 |  |  |  |  |  |  | 
